Key:
[1] = tested on: S. lividans transformed with pCAO401; experiment: Metabolism of 10001 in growing culture, HPLC of supernatant (Example 4); format: in vitro ADME, Streptomyces lividans; conditions: 0.12 mg/ml 10001 in culture
Protocol: Herbicides and their metabolites are measured by HPLC as described by Romesser et al., BBRC 140: 650-659 (1986), herein incorporated by reference, except that 0.1% H3 PO4 is used in both solvents. Chromatographic identity and quantitation of the herbicides and their resulting metabolites is determined by comparing them chromatographically with authentic standard compounds. Identity of the resulting metabolites is also confirmed by UV spectroscopy.
Separate cultures (50 ml) inoculated with S. lividans C37, S. lividans transformed with pCAO400 or S. lividans transformed with pCAO401 in sporulation broth containing 0.12 mg/ml of 10001 were grown with shaking at 30° C. Aliquots (1.5 ml) of each culture were removed at 24, 32, 48 and 56 hours after inoculation and the supernatant of each aliquot was analyzed by HPLC for its concentration of 10001 and its metabolites 10002 or 10003.

S. griseolus PH3826 = experiment: Metabolism of 10001 by strains transformed with pPAT108 (Example 14); format: in vitro ADME, Streptomyces griseolus; conditions: substrate 10001 120 ug/ml
Protocol: (§1) S. griseolus PH2003, S. griseus PH4001, S. ambofaciens PH4002, and S. lividans JI1326 were transformed with the plasmid pPAT108. The transformed S. griseolus strain, PH3826, was cultured for 24 hours in 150 mls of sporulation broth with 5 ug/ml thiostrepton. The transformed S. griseus strain, PH3832, and the transformed S. ambofaciens strain, PH3834, were cultured for 24 hours in 150 mls of trypticase soy broth with 5 ug/ml thiostrepton. The transformed S. lividans strain, PH3822, was similarly cultured in 150 mls of YEME broth with 5 ug/ml thiostrepton. Three hours before harvesting the cells, 50 mls of fresh medium of the same type with 5 ug/ml thiostrepton was added to each culture. The cells from each of the cultures were harvested by centrifugation, washed twice with 50 mMMOPS, pH7.2 and resuspended in five cell volumes of MOPS containing 0.2% glucose and 120 ug/ml of the sulfonylurea 10001. The cell suspensions were incubated at 30° C. with shaking and aliquots were removed at 0.5, 1, 2 and 4 hours. The supernatant of each aliquot was analyzed by HPLC and the concentration of the sulfonylurea compound 10001 and its metabolites 10002 and 10003 were determined.

S. ambofaciens PH3818 = experiment: Metabolism of 10001 by strains transformed with pCS325 (Example 15); format: in vitro ADME, Streptomyces ambofaciens; conditions: substrate 10001
Protocol: as §1
S. griseolus PH2003, S. griseus PH4001, S. ambofaciens PH4002, and S. lividans JI1326 were transformed with the plasmid pCS325. Cells of the transformed strains of S. griseolus PH3809, S. griseus PH3817, S. ambofaciens PH3818, and S. lividans PH3816, were grown and treated as described in Example 14, and the concentrations of the sulfonylurea compound 10001 and its metabolites 10002 and 10003 were determined.

[2] = tested on: leaves of transformed tobacco; experiment: Metabolism of 10001 in excised tobacco leaves (Example 20); format: in vitro ADME, Nicotiana tabacum; conditions: plants transformed with pSSU-SU111 and pCab-SU131, 21 hours
Protocol: Plants were grown from tobacco seed produced by self-pollinated transformed plants in Metro-Mix® 350 under 16 hour light (light intensity of 400 μEinsteins per second per square meter at pot level, 22° C. and 80% relative humidity) followed by 8 hours of dark (18° C. and 70 to 80% relative humidity) and watered three times daily with half strength Hoagland's solution. The presence of the cytochrome P450 protein in individual plants was confirmed by Western blot analysis before testing for sulfonylurea metabolism.
During growth, the tobacco plants produced leaves attached to the main stalk, none of which were of the same age or size. […]
Individual leaves were extracted with 30 ml acetone/water (80%/20% by volume) for 1 minute in a Sorvall® Omni-Mixer. […] 10015 and its metabolites were detected at 254 nm while ^14 C-10001 and its metabolites were detected with a Radiomatic Flo-One® detector. A diode array detector was used in separate experiments to obtain the absorbance spectra of the 10015 metabolite and an 10014 standard in the HPLC analysis of several extracts (HPLC method is described in Romesser et al., Biochem. Biophys. Res. Comm., 140:650-659 (1986)). Comparison of the metabolite absorbance spectrum with that of the 10014 confirmed the metabolite's identity. […]

| Structure (SMILES) | concentration in supernatant ([1]; 0 h) [µM] | concentration in supernatant ([1]; 24 h) [µM] | concentration in supernatant ([1]; 32 h) [µM] | concentration in supernatant ([1]; 48 h) [µM] | concentration in supernatant ([1]; 56 h) [µM] | concentration in supernatant (S. griseolus PH3826; 0.5 h) [µM] | concentration in supernatant (S. griseolus PH3826; 1.0 h) [µM] | concentration in supernatant (S. griseolus PH3826; 2.0 h) [µM] | concentration in supernatant (S. griseolus PH3826; 4.0 h) [µM] | concentration in supernatant (S. ambofaciens PH3818; 0.5 h) [µM] | concentration in supernatant (S. ambofaciens PH3818; 1.0 h) [µM] | concentration in supernatant (S. ambofaciens PH3818; 2.0 h) [µM] | concentration in supernatant (S. ambofaciens PH3818; 4.0 h) [µM] | extent of metabolism versus leaf tissue of pAGS112 plants [2] | metabolite production versus leaf tissue of pAGS112 plants ([2]; substrate 10001) |
| --- | --- | --- | --- | --- | --- | --- | --- | --- | --- | --- | --- | --- | --- | --- | --- |
| CCOC(=O)c1ccccc1S(=O)(=O)NC(=O)Nc1nc(Cl)cc(OC)n1 [compound 10001, N-[(4-chloro-6-methoxy-pyrimidin-2-yl)aminocarbonyl]-2-ethoxycarbonylbenzenesulfonamide] | 284 | 230 | 203 | 123 | 105 | 222 | 137 | 19 | 0 | 286 | 265 | 210 | 129 | metabolized to a significantly greater extent |  |
| CCOC(=O)c1ccccc1S(=O)(=O)NC(=O)Nc1nc(O)cc(Cl)n1 [compound 10002, N-[(4-chloro-6-hydroxy-pyrimidin-2-yl)aminocarbonyl]-2-ethoxycarbonylbenzenesulfonamide] | 0 | 32 | 44 | 63 | 71 | 41 | 101 | 171 | 189 |  |  |  |  |  | more 10002 was produced |
| COc1cc(Cl)nc(NC(=O)NS(=O)(=O)c2ccccc2C(=O)O)n1 [compound 10003, N-[(4-chloro-6-methoxy-pyrimidin-2-yol)aminocarbonyl]-2-carboxybenzenesulfonamide] | 0 | 26 | 36 | 46 | 48 | 22 | 58 | 97 | 107 | 1 | 3 | 7 | 13 |  |  |

From US5349127A, “Expression of herbicide metabolizing cytochromes P450” (priority 1992, dated 1994)
